Laboratory results taken from patent US8487102B2, “Pyrrazolopyridine compounds as dual NK1/NK3 receptor antagonists” (Hoffmann-La Roche Inc., priority 2010, dated 2013).

Key:
[1] = biological target: T1, Recombinant human NK3 (hNK3) receptor (Homo sapiens, UniProt P29371); test: NK3 receptor binding assay, [3H]SR142801 displacement; conditions: hNK3 receptor membranes, [3H]SR142801 0.3 nM
T1 construct: expressed in transfected cells; membrane preparations of the recombinant receptor
T1 sequence (P29371 1-465): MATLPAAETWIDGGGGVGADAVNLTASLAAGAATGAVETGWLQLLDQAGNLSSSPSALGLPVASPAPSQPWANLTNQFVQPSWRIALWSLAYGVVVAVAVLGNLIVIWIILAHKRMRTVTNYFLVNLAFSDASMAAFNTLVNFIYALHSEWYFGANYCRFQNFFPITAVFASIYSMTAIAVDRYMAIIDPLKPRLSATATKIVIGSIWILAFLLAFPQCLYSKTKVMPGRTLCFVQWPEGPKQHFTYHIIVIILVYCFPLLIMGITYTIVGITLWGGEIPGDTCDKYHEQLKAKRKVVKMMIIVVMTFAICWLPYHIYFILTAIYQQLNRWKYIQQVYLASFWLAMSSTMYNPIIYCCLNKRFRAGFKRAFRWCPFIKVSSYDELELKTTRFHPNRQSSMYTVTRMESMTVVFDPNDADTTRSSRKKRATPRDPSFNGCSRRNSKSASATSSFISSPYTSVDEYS
Description: Recombinant human NK3 (hNK3) receptor affinity was determined in a 96 well plate assay, using [^3H]SR142801 (final concentration 0.3 nM) to radiolabel the hNK3 receptor in the presence of 10 concentrations of competing compound or buffer. Non specific binding was determined using 10 μM SB222200. Assay buffer consisted of Tris-HCl (50 mM, pH 7.4), BSA (0.1%), MnCl2 (4 mM) and phosphoramidon (1 μM). Membrane preparations of hNK3 receptors (approximately 2.5 μg/well in a 96 well plate) were used to initiate the incubation for 90 min at room temperature. This assay was terminated by rapid filtration under vacuum through GF/C filters, presoaked for 90 min with PEI (0.3%), with 3×0.5 ml washes of ice-cold Tris buffer (50 mM, pH 7.4) containing 0.1% BSA. The radioactivity retained on the filters was measured by scintillation counting. All assays were performed in duplicate in at least two separate experiments.

human NK1 receptor = biological target: T2, human NK1 receptor (Homo sapiens, UniProt P25103); test: NK1 receptor binding assay, [3H]substance P displacement; conditions: human NK1 receptors in CHO cells, [3H]substance P 0.6 nM
T2 construct: expressed in transfected cells; host or cells: CHO cells (Semliki virus expression system), membrane suspension
T2 sequence (P25103 whole entry): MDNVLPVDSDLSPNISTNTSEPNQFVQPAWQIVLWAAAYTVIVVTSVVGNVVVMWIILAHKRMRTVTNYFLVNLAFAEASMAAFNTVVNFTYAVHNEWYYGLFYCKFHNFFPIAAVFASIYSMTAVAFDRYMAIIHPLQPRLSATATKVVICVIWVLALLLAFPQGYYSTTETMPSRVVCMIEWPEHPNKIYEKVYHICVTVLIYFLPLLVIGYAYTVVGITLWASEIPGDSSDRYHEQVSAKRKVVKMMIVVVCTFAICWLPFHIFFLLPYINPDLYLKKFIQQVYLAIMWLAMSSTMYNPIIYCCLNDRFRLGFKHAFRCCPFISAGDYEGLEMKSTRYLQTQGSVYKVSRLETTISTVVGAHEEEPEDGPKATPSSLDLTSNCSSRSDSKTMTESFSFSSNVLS

[2] = phase II trial, cited from earlier work

Row | Structure (SMILES) | Ki [1] | Ki (human NK1 receptor) | activity on positive symptoms of schizophrenia ([2]; altered behaviour, delusion, hallucinations, extreme emotions, excited motor activity, incoherent speech) | activity in the treatment of negative symptoms of schizophrenia ([2]; depression, anhedonia, social isolation or memory and attention deficits)
1 | CCn1ncc2c(-c3cscc3C)c(N(C)C(=O)C(C)(C)c3cc(C(F)(F)F)cc(C(F)(F)F)c3)cnc21 [Example 21, 2-(3,5-Bis-trifluoromethyl-phenyl)-N-[1-ethyl-4-(4-methyl-thiophen-3-yl)-1H-pyrazolo[3,4-b]pyridin-5-yl]-N-methyl-isobutyramide] | 1.2 nM | 92 nM |  | 
2 | CCn1ncc2c(-c3cc(CO)ccc3Cl)c(N(C)C(=O)C(C)(C)c3cc(C(F)(F)F)cc(C(F)(F)F)c3)cnc21 [Example 22, 2-(3,5-Bis-trifluoromethyl-phenyl)-N-[4-(2-chloro-5-hydroxymethyl-phenyl)-1-ethyl-1H-pyrazolo[3,4-b]pyridin-5-yl]-N-methyl-isobutyramide] | 4.8 nM | 2.5 nM |  | 
3 | CCn1ncc2c(-c3ccc(C#N)cc3)c(N(C)C(=O)C(C)(C)c3cc(C(F)(F)F)cc(C(F)(F)F)c3)cnc21 [Example 23, 2-(3,5-Bis-trifluoromethyl-phenyl)-N-[4-(4-cyano-phenyl)-1-ethyl-1H-pyrazolo[3,4-b]pyridin-5-yl]-N-methyl-isobutyramide] | 979 nM | 4.9 nM |  | 
4 | CCn1ncc2c(-c3ccsc3Cl)c(N(C)C(=O)C(C)(C)c3cc(C(F)(F)F)cc(C(F)(F)F)c3)cnc21 [Example 24, 2-(3,5-Bis-trifluoromethyl-phenyl)-N-[4-(2-chloro-thiophen-3-yl)-1-ethyl-1H-pyrazolo[3,4-b]pyridin-5-yl]-N-methyl-isobutyramide] | 0.7 nM | 36 nM |  | 
5 | CCn1ncc2c(-c3ccc(F)cc3C)c(N(C)C(=O)C(C)(C)c3cc(F)cc(C(F)(F)F)c3)cnc21 [Example 26, 2-(3-fluoro-5-trifloromethyl-phenyl)-N-[1-ethyl-4-(4-fluoro-2-methyl-phenyl)-1H-pyrazolo[3,4-b]pyridin-5-yl]-N-methyl-isobutyramide] | 94.2 nM | 4.2 nM |  | 
6 | CCn1ncc2c(-c3ccc(F)cc3C)c(N(C)C(=O)C(C)(C)c3cc(Cl)cc(Cl)c3)cnc21 [Example 27, 2-(3,5-Dichloro-phenyl)-N-[1-ethyl-4-(4-fluoro-2-methyl-phenyl)-1H-pyrazolo[3,4-b]pyridin-5-yl]-N-methyl-isobutyramide] | 35.1 nM | 2.6 nM |  | 
7 | Cc1cc(F)ccc1-c1c(N(C)C(=O)C(C)(C)c2cc(C(F)(F)F)cc(C(F)(F)F)c2)cnc2[nH]ncc12 [Example 28, 2-(3,5-Bis-trifluoromethyl-phenyl)-N-[4-(4-fluoro-2-methyl-phenyl)-1H-pyrazolo[3,4-b]pyridin-5-yl]-N-methyl-isobutyramide] | 27.3 nM | 1.6 nM |  | 
8 | CCn1ncc2c(-c3ccc(F)cc3C)c(N(C)C(=O)C(C)(C)c3cccc(Cl)c3)cnc21 [Example 29, 2-(3-Chloro-phenyl)-N-[1-ethyl-4-(4-fluoro-2-methyl-phenyl)-1H-pyrazolo[3,4-b]pyridin-5-yl]-N-methyl-isobutyramide] | 308 nM | 34.5 nM |  | 
9 | CCn1ncc2c(-c3ccc(F)cc3C)c(N(C)C(=O)C(C)(C)c3cccc(C(F)(F)F)c3)cnc21 [Example 30, N-[1-Ethyl-4-(4-fluoro-2-methyl-phenyl)-1H-pyrazolo[3,4-b]pyridin-5-yl]-N-methyl-2-(3-trifluoromethyl-phenyl)-isobutyramide] | 875 nM | 12.4 nM |  | 
10 | CC(=O)n1ncc2c(-c3ccc(F)cc3C)c(N(C)C(=O)C(C)(C)c3cc(C(F)(F)F)cc(C(F)(F)F)c3)cnc21 [Example 31, N-[1-Acetyl-4-(4-fluoro-2-methyl-phenyl)-1H-pyrazolo[3,4-b]pyridin-5-yl]-2-(3,5-bis-trifluoromethyl-phenyl)-N-methyl-isobutyramide] | 12.9 nM | 1.2 nM |  | 
11 | COCC(=O)n1ncc2c(-c3ccc(F)cc3C)c(N(C)C(=O)C(C)(C)c3cc(C(F)(F)F)cc(C(F)(F)F)c3)cnc21 [Example 32, 2-(3,5-Bis-trifluoromethyl-phenyl)-N-[4-(4-fluoro-2-methyl-phenyl)-1-(2-methoxy-acetyl)-1H-pyrazolo[3,4-b]pyridin-5-yl]-N-methyl-isobutyramide] | 28.4 nM | 1.9 nM |  | 
12 | Cc1cc(F)ccc1-c1c(N(C)C(=O)C(C)(C)c2cc(C(F)(F)F)cc(C(F)(F)F)c2)cnc2c1cnn2C(=O)C1CC1 [Example 33, 2-(3,5-Bis-trifluoromethyl-phenyl)-N-[1-cyclopropanecarbonyl-4-(4-fluoro-2-methyl-phenyl)-1H-pyrazolo[3,4-b]pyridin-5-yl]-N-methyl-isobutyramide] | 9.9 nM | 1.6 nM |  | 
13 | Cc1cc(F)ccc1-c1c(N(C)C(=O)C(C)(C)c2cc(C(F)(F)F)cc(C(F)(F)F)c2)cnc2c1cnn2S(C)(=O)=O [Example 36, 2-(3,5-Bis-trifluoromethyl-phenyl)-N-[4-(4-fluoro-2-methyl-phenyl)-1-methanesulfonyl-1H-pyrazolo[3,4-b]pyridin-5-yl]-N-methyl-isobutyramide] | 15.1 nM | 0.6 nM |  | 
14 | Cc1cc(F)ccc1-c1c(N(C)C(=O)C(C)(C)c2cc(C(F)(F)F)cc(C(F)(F)F)c2)cnc2c1cnn2S(=O)(=O)N(C)C [Example 37, 2-(3,5-Bis-trifluoromethyl-phenyl)-N-[1-dimethylsulfamoyl-4-(4-fluoro-2-methyl-phenyl)-1H-pyrazolo[3,4-b]pyridin-5-yl]-N-methyl-isobutyramide] | 78.5 nM | 7.5 nM |  | 
15 | Cc1cc(F)ccc1-c1c(N(C)C(=O)C(C)(C)c2cc(C(F)(F)F)cc(C(F)(F)F)c2)cnc2c1cnn2CS(C)(=O)=O [Example 38, 2-(3,5-Bis-trifluoromethyl-phenyl)-N-[4-(4-fluoro-2-methyl-phenyl)-1-methanesulfonylmethyl-1H-pyrazolo[3,4-b]pyridin-5-yl]-N-methyl-isobutyramide] | 8 nM | 1.1 nM |  | 
16 | CC(=O)N(C)C1(c2ccccc2)CCN(CCC[C@]2(c3ccc(Cl)c(Cl)c3)CCCN(C(=O)c3ccccc3)C2)CC1 [SR 142,801, Osanetant] |  |  | active | inactive
